# Where “and” joins values, the source holds several entries; their conditions need not be identical. Identical values can stand only once. Inconclusive results and toxic doses are left out.
# Test system: CD2F1 mice, L1210 leukemia ip, survival T/C
# Test: NCI In Vivo Anticancer Drug Screen. Data for tumor model L1210 Leukemia (intraperitoneal) in CD2F1 (CDF1) mice
# Conditions: higher = longer survival
# Procedure, shortened: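 Tumor-bearing mice (transplanted tumor) were split into treated and vehicle control groups, and the measured endpoint of each treated group was divided by that of its vehicle controls.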
# [1] = endpoint: mean survival time, dose: 50.0 mg/kg/injection, schedule: Q01DX009 (ip), vehicle: saline with Tween-80
# [2] = endpoint: mean survival time, dose: 100.0 mg/kg/injection, schedule: Q01DX009 (ip), vehicle: saline with Tween-80
# [3] = endpoint: mean survival time, dose: 100.0 mg/kg/injection, schedule: Q04DX003 (ip), vehicle: saline
# [4] = endpoint: mean survival time, dose: 200.0 mg/kg/injection, schedule: Q01DX009 (ip), vehicle: saline with Tween-80
# [5] = endpoint: mean survival time, dose: 200.0 mg/kg/injection, schedule: Q04DX003 (ip), vehicle: saline
# [6] = endpoint: mean survival time, dose: 100.0 mg/kg/injection, schedule: Q01DX001 (ip), vehicle: saline with Tween-80
# [7] = endpoint: mean survival time, dose: 200.0 mg/kg/injection, schedule: Q01DX001 (ip), vehicle: saline with Tween-80
# [8] = endpoint: mean survival time, dose: 400.0 mg/kg/injection, schedule: Q01DX001 (ip), vehicle: saline with Tween-80
# [9] = endpoint: mean survival time, dose: 100.0 mg/kg/injection, schedule: Q04DX002 (ip), vehicle: saline with Tween-80
# [10] = endpoint: mean survival time, dose: 25.0 mg/kg/injection, schedule: Q04DX003 (ip), vehicle: saline with Tween-80
# [11] = endpoint: mean survival time, dose: 50.0 mg/kg/injection, schedule: Q04DX003 (ip), vehicle: saline with Tween-80
# [12] = endpoint: mean survival time, dose: 50.0 mg/kg/injection, schedule: Q01DX009 (ip), vehicle: saline
# [13] = endpoint: mean survival time, dose: 100.0 mg/kg/injection, schedule: Q01DX009 (ip), vehicle: saline
# [14] = endpoint: mean survival time, dose: 200.0 mg/kg/injection, schedule: Q01DX009 (ip), vehicle: saline
# [15] = endpoint: mean survival time, dose: 100.0 mg/kg/injection, schedule: Q04DX003 (ip), vehicle: saline with Tween-80
# [16] = endpoint: mean survival time, dose: 200.0 mg/kg/injection, schedule: Q04DX003 (ip), vehicle: saline with Tween-80
# [17] = endpoint: mean survival time, dose: 400.0 mg/kg/injection, schedule: Q04DX003 (ip), vehicle: saline with Tween-80
smiles,measurement,setting,value
CCNc1nc(NC(C)C)nc(SC)n1,T/C,[1],104 % of control
same,T/C,[2],101 % of control
same,T/C,[3],97 % of control
same,T/C,[4],117 % of control
same,T/C,[5],101 % of control
CCCC(C)(CCC)OC(=O)Nc1cccc2ccccc12,T/C,[6],92 % of control
same,T/C,[7],92 % of control
same,T/C,[8],92 % of control
OC1(c2cccc(C(F)(F)F)c2)CCN(C2CC2c2ccccc2)CC1 (stereo unspecified),T/C,[9],97 % of control
same,T/C,"endpoint: mean survival time, dose: 200.0 mg/kg/injection, schedule: Q04DX002 (ip), vehicle: saline with Tween-80",95 % of control
CCOC(=O)NC(C)(C)CN(C(=O)OCC)C(C)C,T/C,"endpoint: mean survival time, dose: 100.0 mg/kg/injection, schedule: Q01DX009 (ip), vehicle: other",102 % of control
same,T/C,"endpoint: mean survival time, dose: 200.0 mg/kg/injection, schedule: Q01DX009 (ip), vehicle: other",104 % of control
CC(=Nc1ccccc1)C1=C(O)C(Cc2cccc(F)c2)NC1=O (stereo unspecified),T/C,[9],116 % of control
same,T/C,"endpoint: mean survival time, dose: 400.0 mg/kg/injection, schedule: Q04DX002 (ip), vehicle: saline with Tween-80",103 % of control
COC(=O)[C@@H]1[C@@H](O)[C@H](OC(=O)c2cc(OC)c(OC)c(OC)c2)C[C@@H]2CN3CCc4c([nH]c5ccccc45)[C@H]3C[C@@H]21,T/C,"endpoint: mean survival time, dose: 1.56 mg/kg/injection, schedule: Q01DX009 (ip), vehicle: saline sonified",93 % of control
same,T/C,"endpoint: mean survival time, dose: 3.13 mg/kg/injection, schedule: Q01DX009 (ip), vehicle: saline sonified",95 % of control
same,T/C,"endpoint: mean survival time, dose: 6.25 mg/kg/injection, schedule: Q01DX009 (ip), vehicle: saline sonified",102 % of control
same,T/C,"endpoint: mean survival time, dose: 12.5 mg/kg/injection, schedule: Q04DX003 (ip), vehicle: saline with Tween-80",103 % of control
same,T/C,[10],103 % of control
same,T/C,[11],103 % of control
[C-]#[O+].[C-]#[O+].[C-]#[O+].[C-]#[O+].[C-]#[O+].[Cr].c1ccc([PH+](c2ccccc2)c2ccccc2)cc1,T/C,[1],100 % of control
same,T/C,[2],91 % of control
same,T/C,[4],93 % of control
Cc1cccc(N(C)C(=S)Oc2ccc3ccccc3c2)c1,T/C,"endpoint: mean survival time, dose: 50.0 mg/kg/injection, schedule: Q01DX009 (ip), vehicle: Klucel (hydroxypropylcellulose) (HPC)",112 % of control
same,T/C,"endpoint: mean survival time, dose: 100.0 mg/kg/injection, schedule: Q01DX009 (ip), vehicle: Klucel (hydroxypropylcellulose) (HPC)",89 % of control
same,T/C,"endpoint: mean survival time, dose: 200.0 mg/kg/injection, schedule: Q01DX009 (ip), vehicle: Klucel (hydroxypropylcellulose) (HPC)",89 % of control
O=NN(CCCl)C(=O)Nc1cc(NC(=O)N(CCCl)N=O)cc(C(=O)O)c1,T/C,"endpoint: mean survival time, dose: 10.0 mg/kg/injection, schedule: Q04DX003 (ip), vehicle: saline with Tween-80",186 % of control
same,T/C,"endpoint: mean survival time, dose: 20.0 mg/kg/injection, schedule: Q04DX003 (ip), vehicle: saline with Tween-80",212 % of control
CCOC(=O)CN(CC(=O)OCC)c1ccc(C(C)=O)cc1,T/C,[3],105 % of control
same,T/C,[5],94 % of control
O=C1C=CC(=O)C2C3C=CC(C/C=C\C3)C12 (stereo unspecified),T/C,"endpoint: mean survival time, dose: 12.5 mg/kg/injection, schedule: Q04DX002 (ip), vehicle: saline with Tween-80",105 % of control
same,T/C,"endpoint: mean survival time, dose: 25.0 mg/kg/injection, schedule: Q04DX002 (ip), vehicle: saline with Tween-80",94 % of control
same,T/C,"endpoint: mean survival time, dose: 50.0 mg/kg/injection, schedule: Q04DX002 (ip), vehicle: saline with Tween-80",94 % of control
OC(COc1ccc(Cl)cc1)COc1ccc(Cl)cc1,T/C,"endpoint: mean survival time, dose: 25.0 mg/kg/injection, schedule: Q01DX001 (ip), vehicle: saline with Tween-80",94 % of control
same,T/C,"endpoint: mean survival time, dose: 50.0 mg/kg/injection, schedule: Q01DX001 (ip), vehicle: saline with Tween-80",94 % of control
same,T/C,[6],105 % of control
Cc1cn(C2CC(O)C(CO)O2)c(=O)[nH]c1=O (stereo unspecified),T/C,"endpoint: mean survival time, dose: 12.5 mg/kg/injection, schedule: Q01DX009 (ip), vehicle: saline",95 % of control and 104 % of control
same,T/C,"endpoint: mean survival time, dose: 25.0 mg/kg/injection, schedule: Q01DX009 (ip), vehicle: saline",91 % of control and 103 % of control
same,T/C,[12],91 % of control and 104 % of control
same,T/C,[13],98 % of control
same,T/C,[14],95 % of control and 103 % of control
same,T/C,"endpoint: mean survival time, dose: 250.0 mg/kg/injection, schedule: Q03HX008 (ip), vehicle: saline",102 % of control
same,T/C,"endpoint: mean survival time, dose: 400.0 mg/kg/injection, schedule: Q01DX009 (ip), vehicle: saline",92 % of control
same,T/C,"endpoint: mean survival time, dose: 500.0 mg/kg/injection, schedule: Q03HX008 (ip), vehicle: saline",110 % of control
same,T/C,"endpoint: mean survival time, dose: 1000.0 mg/kg/injection, schedule: Q03HX008 (ip), vehicle: saline",102 % of control
CC(=O)NCCCN1CCOCC1,T/C,[3],96 % of control
same,T/C,[5],104 % of control
same,T/C,"endpoint: mean survival time, dose: 400.0 mg/kg/injection, schedule: Q04DX003 (ip), vehicle: saline",98 % of control
O=c1c2ccccc2c(-c2ccccc2)nn1Cc1ccccc1,T/C,[15],103 % of control
same,T/C,[16],108 % of control
same,T/C,[17],98 % of control
CC1CN1C(=O)OCCOC(=O)N1CC1C (stereo unspecified),T/C,"endpoint: mean survival time, dose: 200.0 mg/kg/injection, schedule: Q01DX Z (ip), vehicle: saline",120 % of control
same,T/C,"endpoint: mean survival time, dose: 300.0 mg/kg/injection, schedule: Q01DX Z (ip), vehicle: saline",117 % of control
same,T/C,"endpoint: mean survival time, dose: 450.0 mg/kg/injection, schedule: Q01DX Z (ip), vehicle: saline",117 % of control
CC(C)([NH-])C[NH-].O=C(O)CC(=O)O.[Pt+2],T/C,"endpoint: median survival time, dose: 20.0 mg/kg/injection, schedule: Q04DX003 (ip), vehicle: distilled water + Tween-80",104 % of control
CC(=O)NC(C)(C)Cc1ccccc1,T/C,[6],101 % of control
same,T/C,[7],117 % of control
same,T/C,[8],106 % of control
COc1cc(/C=N/N2C(=O)CSC2=S)ccc1OCc1ccccc1,T/C,[6],95 % of control
same,T/C,[7],91 % of control
same,T/C,[8],89 % of control
O=C(NCc1ccccc1)C(Cc1ccccc1)(Cc1ccccc1)C(=O)NCc1ccccc1,T/C,[1],102 % of control
same,T/C,[2],97 % of control
same,T/C,[4],93 % of control
CC(C)CCNC(=O)CI,T/C,"endpoint: mean survival time, dose: 100.0 mg/kg/injection, schedule: Q01DX001 (ip), vehicle: saline",101 % of control
same,T/C,"endpoint: mean survival time, dose: 200.0 mg/kg/injection, schedule: Q01DX001 (ip), vehicle: saline",95 % of control
OCC1OC(n2cnc3c(Cl)nccc32)C(O)C1O (stereo unspecified),T/C,"endpoint: median survival time, dose: 9.63 mg/kg/injection, schedule: Q01DX005 (ip), vehicle: saline",100 % of control
same,T/C,"endpoint: median survival time, dose: 19.25 mg/kg/injection, schedule: Q01DX005 (ip), vehicle: saline",104 % of control
same,T/C,"endpoint: median survival time, dose: 38.5 mg/kg/injection, schedule: Q01DX005 (ip), vehicle: saline",94 % of control
same,T/C,"endpoint: median survival time, dose: 77.0 mg/kg/injection, schedule: Q01DX005 (ip), vehicle: saline",108 % of control
same,T/C,"endpoint: median survival time, dose: 154.0 mg/kg/injection, schedule: Q01DX005 (ip), vehicle: saline",101 % of control
Cn1cnc2cc(N)ccc21,T/C,[12],95 % of control
same,T/C,[13],98 % of control
same,T/C,[14],98 % of control
COc1nc(NC2OCC(O)C(O)C2O)cc(=O)n1C (stereo unspecified),T/C,"endpoint: median survival time, dose: 12.5 mg/kg/injection, schedule: Q01DX005 (ip), vehicle: saline",102 % of control
same,T/C,"endpoint: median survival time, dose: 25.0 mg/kg/injection, schedule: Q01DX005 (ip), vehicle: saline",101 % of control
same,T/C,"endpoint: median survival time, dose: 50.0 mg/kg/injection, schedule: Q01DX005 (ip), vehicle: saline",100 % of control
same,T/C,"endpoint: median survival time, dose: 100.0 mg/kg/injection, schedule: Q01DX005 (ip), vehicle: saline",105 % of control
same,T/C,"endpoint: median survival time, dose: 200.0 mg/kg/injection, schedule: Q01DX005 (ip), vehicle: saline",98 % of control
Cc1cccc([N+](=O)[O-])n1,T/C,[10],109 % of control
same,T/C,[11],95 % of control
same,T/C,[15],98 % of control
C=CCNC1CCS(=O)(=O)C1 (stereo unspecified),T/C,[12],104 % of control
same,T/C,[13],97 % of control
same,T/C,[14],104 % of control
C[CH2][Pb]([Cl])([CH2]C)[CH2]C,T/C,"endpoint: mean survival time, dose: 1.56 mg/kg/injection, schedule: Q01DX009 (ip), vehicle: other",103 % of control
same,T/C,"endpoint: mean survival time, dose: 3.12 mg/kg/injection, schedule: Q01DX009 (ip), vehicle: other",100 % of control
same,T/C,"endpoint: mean survival time, dose: 6.25 mg/kg/injection, schedule: Q01DX009 (ip), vehicle: other",90 % of control
CC1(OO)CC(=O)OO1 (stereo unspecified),T/C,"endpoint: mean survival time, dose: 5.0 mg/kg/injection, schedule: Q01DX001 (ip), vehicle: saline",90 % of control
same,T/C,"endpoint: mean survival time, dose: 10.0 mg/kg/injection, schedule: Q01DX001 (ip), vehicle: saline",95 % of control
same,T/C,"endpoint: mean survival time, dose: 20.0 mg/kg/injection, schedule: Q01DX001 (ip), vehicle: saline",92 % of control
CC12OCCCC1C1CCCCC12 (stereo unspecified),T/C,[15],95 % of control
same,T/C,[16],95 % of control
same,T/C,[17],90 % of control
CCCCCCNC(=O)Nc1ccc(Cl)c(Cl)c1,T/C,[16],92 % of control
same,T/C,[17],93 % of control
